In data set [1] the test system is HCAVSMCs. Kind of data set: Cytosolic vs. organelle bound peptide by digitonin semi-permeabilization. The class given is cell-based, human. Conditions: Bafilomycin treatment. As for the experimental part: In order to quantify the cytosolic bioavailability of the MK2i and HSP20 peptides a method to separate cytosolic and organelle bound (i.e. endosomal, lysosomal, golgi, etc.) peptide was adapted from the methods developed by Liu et a140. The procedure was optimized for this experiment based upon LDH release from HCAVSMCs treated with varying concentrations of digitonin (Calbiochem) in buffer (150 mM NaCl, 0.2 mM EDTA, 20 mM HEPES-NaOH (pH 7.4), 2 mM DTT and 2 mM MgCL2) on ice for 10 mins on a rotary shaker operating at 100 RPM (supplementary FIG. 3). A concentration of 25 μg/mL was then chosen as the optimal digitonin concentration for selective semi-permeabilization of the HCAVSMC membrane and subsequently used for the analysis of intracellular peptide distribution.
To quantify intracellular distribution of the MK2i and p-HSP20 peptides, HCAVSMCs were seeded into a 96 well plate at a density of 20,000 cells/cm2 and allowed to adhere overnight in complete growth medium. A portion of the cells were pretreated with 500 nM Bafilomycin A1 (Sigma) for 30 minutes, and the Bafilomycin was included in subsequent peptide/NP treatment and in the post-treatment incubation phase to inhibit endosomal acidification. […] Treatments were removed and cells were incubated in fresh medium with or without 500 nM Bafilomycin A1 for 6 hours. […]

Data set [2] concerns human saphenous vein (HSV). As to the kind of experiment: Inhibition of phenylephrine-induced HSV contraction. Conditions: 2 h treatment.
Procedure: Prior to experiments, HSV viability was confirmed. HSV rings were weighed and their lengths recorded. […] The rings were stretched and the length progressively adjusted until maximal tension was obtained 49. Normalized reactivity was obtained by determining the passive length-tension relationship for each vessel segment. Rings were maintained at a resting tension of 1 g, which produces maximal responses to contractile agonists, as previously determined, and equilibrated for 2 h in buffer. Force measurements were obtained using a Radnoti Glass Technology (Monrovia, Calif.) force transducer (159901A) interfaced with a Powerlab data acquisition system and LabChart software (AD Instruments, Colorado Springs, Colo.).
HSV rings were initially isometrically contracted with 110 mM KCl (with equimolar replacement of NaCl in bicarbonate buffer), and the generated force was measured. 110 mM KCl causes membrane depolarization, leading to contraction of vessels containing functionally viable smooth muscle. […]
Viable HSV rings were washed, allowed to equilibrate in bicarbonate solution for 30 min, and then contracted with phenylephrine (PE, 1 μM). […] Treated HSV rings were then contracted with the same doses of PE, and the forces generated were again recorded. […]
The subject of data set [3] is HCAVSMCs. The settings on record: human, 72 h.
Procedure: For MK2i-NP and HSP20-NP studies, An amine-reactive Alexa-488 succinimidyl ester (Life Technologies) was dissolved in DMSO and mixed at a 1 to 3 molar ratio with the MK2i or p-HSP20 peptide in 100 mM sodium bicarbonate buffer (pH=8.3) and allowed to react for 3 hours. Unreacted fluorophore and organic solvent were removed using a PD-10 miditrap G-10 desalting column, and the fluorescently labeled MK2i and p-HSP20 peptides were lyophilized. […] Similarly, PPAA was mixed with fluorescently labeled p-HSP20 at a CR of [NH3^+]/[COO^−]=1:3 and syringe filtered through a 0.45 μm PTFE filter to form fluorescent HSP20-NPs. HCAVSMCs were grown to 80-90% confluence, harvested, and seeded at 20,000 cells/well in a 24 well plate and allowed to adhere overnight. […] Following treatment, cells were washed 2× in PBS, and either immediately harvested or incubated in complete growth media for an additional 72 hours. Cells were harvested with 0.05% trypsin-EDTA, centrifuged, and suspended in 0.1% Trypan blue in PBS (−/−) for analysis on a FACSCalibur flow cytometer (Becton Dickinson) with BD CellQuest™ Pro software (V 5.2). Data was exported and analyzed with FlowJo software (V 7.6.4). All samples were run in triplicate.
Data set [4] can be described thus: in vitro. The settings on record: human, HCAVSMCs.
Procedure: 200 μL of cell suspension (at 10,000 cells/well) were seeded onto 96-well plates to yield an approximate 70% confluence per well. Cells were allowed to adhere to the plate overnight. […] Treatments were subsequently removed and the cells were cultured in fresh complete growth medium for 24 hours. Cells were then washed 2× with PBS +/+ and cell viability was then determined by a CytoTox-ONE Homogenous Membrane Integrity assay (Promega) according to the manufacturer's protocol. Briefly, 100 μL of Ambion KDalert Lysis Buffer was added to each well, and then 100 μL of freshly prepared CytoTox-ONE reagent was added to each well. After 10 minutes of incubation, 50 μL of stop solution was added, and the fluorescence of each well (kλex=560 nm, λem, =590 nm) was determined with a TECAN Infinite M1000 Pro plate reader.

Peptide text beside a SMILES is read from it.

In general, viability refers to a per cent measure of how many cells are alive, often set against a control. The low end stands for more harm to the cells, the high end for less harm to the cells. In the case of `CC(C)C[C@H](NC(=O)CNC(=O)[C@@H]1CCCN1C(=O)[C@H](CC(C)C)NC(=O)[C@@H]1CCCN1C(=O)[C@H](C)NC(=O)[C@H](COP(=O)(O)O)NC(=O)[C@H](C)NC(=O)[C@H](CCCNC(=N)N)NC(=O)[C@H](CCCNC(=N)N)NC(=O)[C@H](CC(C)C)NC(=O)[C@H](Cc1c[nH]c2ccccc12)NC(=O)[C@H](C)NC(=O)[C@H](CCCNC(=N)N)NC(=O)[C@H](C)NC(=O)[C@H](CCC(N)=O)NC(=O)[C@H](CCCNC(=N)N)NC(=O)[C@H](C)NC(=O)[C@H](C)NC(=O)[C@H](C)NC(=O)[C@H](CCCNC(=N)N)NC(=O)[C@H](C)NC(=O)[C@@H](N)Cc1ccc(O)cc1)C(=O)N[C@@H](CCCCN)C(=O)O` [p-HSP20] (HELM PEPTIDE1{Y.A.R.A.A.A.R.Q.A.R.A.W.L.R.R.A.[O=C([C@H](COP(=O)(O)O)N[*:1])[*:2]].A.P.L.P.G.L.K}$$$$V2.0; N-terminus and C-terminus assumed), the “cytosolic fraction of internalized free peptide” value in data set [1] is reported as 7.36%±8.28%. Further, the “PE-induced HSV contraction” value in data set [2] is recorded as “significantly inhibited”. Besides, in data set [3], the “intracellular peptide retention (% of initial uptake remaining)” value was 35%. In data set [4], the viability at 2 h, 500 µM is 77%.

For the origin of these results see patent US10087225B2, “Formulation of MK2 inhibitor peptides” (MOERAE MATRIX, INC., priority 2015, dated 2018).
